Patent US9422239B1, “Dual PPAR-δ PPAR-γ agonists” (Auburn University, priority 2013, dated 2016)

Assays:
3T3-L1 adipocytes = test: Lipid accumulation by oil red-o staining; type: cell-based; settings: 6 days, oil red-o stain
Method: 3T3L1 adipocytes were cultured and treated with the novel compounds for a period of 6 days. Lipid accumulation was determined by oil red-o staining, and measured the absorbance spectrophotometrically at a wavelength of 510 nm and standardized to total protein concentrations. Data from lipid accumulation studies were compared to cells treated with rosiglitazone (a full PPARγ agonist).

PPARδ (PDK4-PPRE) = target: T1, PPARδ (PDK4-PPRE) (Homo sapiens, UniProt Q03181); test: PDK4-PPRE luciferase assay in HEK-293 cells; type: cell-based
T1 construct: expressed in transfected cells; host or cells: HEK-293
T1 sequence (Q03181 1-441): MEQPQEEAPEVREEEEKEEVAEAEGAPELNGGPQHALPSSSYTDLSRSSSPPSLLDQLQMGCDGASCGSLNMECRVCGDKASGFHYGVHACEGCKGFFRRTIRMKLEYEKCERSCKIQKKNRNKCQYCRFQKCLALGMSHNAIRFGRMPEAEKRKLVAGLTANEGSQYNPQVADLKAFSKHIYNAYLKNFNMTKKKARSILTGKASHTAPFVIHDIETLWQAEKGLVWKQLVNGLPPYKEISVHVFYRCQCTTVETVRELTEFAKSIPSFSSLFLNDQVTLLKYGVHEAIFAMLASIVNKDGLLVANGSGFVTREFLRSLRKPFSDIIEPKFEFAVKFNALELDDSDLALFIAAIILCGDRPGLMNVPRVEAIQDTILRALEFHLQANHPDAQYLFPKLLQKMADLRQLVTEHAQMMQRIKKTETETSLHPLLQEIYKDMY
T1 sequence (P19793 1-462 partner): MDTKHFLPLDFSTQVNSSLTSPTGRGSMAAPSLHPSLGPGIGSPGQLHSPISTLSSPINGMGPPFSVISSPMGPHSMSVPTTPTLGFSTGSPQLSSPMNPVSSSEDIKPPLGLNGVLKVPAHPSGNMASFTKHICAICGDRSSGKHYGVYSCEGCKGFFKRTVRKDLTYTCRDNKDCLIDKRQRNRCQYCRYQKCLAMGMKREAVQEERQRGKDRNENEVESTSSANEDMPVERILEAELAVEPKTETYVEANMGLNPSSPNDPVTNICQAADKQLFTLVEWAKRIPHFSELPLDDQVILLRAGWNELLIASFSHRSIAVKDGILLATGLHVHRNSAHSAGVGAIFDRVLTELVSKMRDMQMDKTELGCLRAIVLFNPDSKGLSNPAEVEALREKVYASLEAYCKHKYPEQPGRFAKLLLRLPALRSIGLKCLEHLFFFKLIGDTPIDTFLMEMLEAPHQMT
Source text: To validate the specificity of the novel compounds towards activation of PPARγ/δ targets, we tested the compounds capacity to bind to select PPARγ/δ Peroxisome Proliferator Response Elements (PPRE). The PPRE are unique sites located in the promoter region where PPARs bind and transcriptionally activate the target genes. AP2-PPRE is the PPARγ target involved in adipocyte growth and differentiation. PDK4-PPRE is a PPARδ target involved in regulating energy metabolism in the cell. These PPREs were inserted into a PGL3 luciferase vectors containing CMV promoters (ADDGENE) using PCR. These vectors were co-transfected with RXR, PPARγ/PPARδ and p-galactosidase vectors into HEK-293 cells using Lipofectamine 2000 (Invitrogen). Relative light units (RLU) were measured using a Glomax Luminometer (Promega). Data were standardized to p-galactosidase activity using ONPG (Promega).

[1] = Accumulation in the brain after repeated dosing; type: in vivo, mice; settings: 10 mg/kg, after 3 weeks
Method: Thus, a 10 mg/kg dose for 4 weeks can be administered.

[2] = system: C2C12 skeletal muscle cells; test: Mitochondrial biogenesis markers by quantitative RT-PCR; type: cell-based; settings: 4 days
Method: Therefore, to test the effects of the novel compounds on mitochondrial biogenesis, C2C12 skeletal muscle cells were cultured and treated with the novel compounds for 4 days. Changes associated with markers for mitochondrial biogenesis were determined by quantitative real time PCR.

db/db mice = test: Y maze behavioral test, compound 9; type: in vivo; settings: oral, 1 mg/kg
Method: Groups of mice can be subjected to Y-maze tests and object recognition tests (ORT) to determine the improvement of working and declarative memory. Briefly the Y-maze test involves the novel arm being blocked, so mice are allowed to explore the other two arms for 15 minutes. Appropriate external and internal cues are assigned for each arm. After 15 minute training sessions, the mice are caged in the same room for 4 hours (holding session) followed by the novel arm exploration where mice are allowed to explore the novel arm for […].

[3] = Biodistribution by LC-Mass Spectral analysis; settings: mice; for concentration at 4 h: mouse, po, 3 mg/kg, 3 mg/kg (table)

Question: Which Lipid accumulation (3T3-L1 adipocytes) does the source give for `Cc1ccc(CNCCCN(Cc2ccc(C(=O)O)cc2)Cc2cc(C(F)(F)F)cc(C(F)(F)F)c2)cc1` [Compound 9] here?
Answer: Its Lipid accumulation is “less lipid accumulation”.

Question: What about the Lipid accumulation (3T3-L1 adipocytes; listed as compound 9) of the same compound?
Answer: Its Lipid accumulation is “negligible effects”.

Question: What about the “Binding affinity for the PDK4-PPRE” value (PPARδ (PDK4-PPRE)) of the same compound?
Answer: The value was “strong binding affinity”.

Question: And the “Accumulation in the brain” value [1]?
Answer: The value was “accumulate in the brain”.

Question: What about the “Cytochrome oxidase c 4-2 subunit expression” value [2] of the same compound?
Answer: The value was “significantly increased”.

Question: What about the “Gene expression of mitochondrial markers” value [2] of the same compound?
Answer: The value was “increases”.

Question: What about the “Cognition in Y maze behavioral tests” value (db/db mice) of the same compound?
Answer: The value was “improves cognition”.

Question: What about the “Detection in the brain (crosses the blood brain barrier)” value ([3]; oral, 4 hours) of the same compound?
Answer: The value was “detected”.

Question: What about the concentration at 4 h ([3]; adipose, Concentration) of the same compound?
Answer: Its concentration at 4 h is 0.0404 µg/mL.

Question: What about the concentration at 4 h ([3]; adipose, Tissue Concentration) of the same compound?
Answer: Its concentration at 4 h is 0.0152 µg/mL.

Question: And the concentration at 4 h ([3]; adipose, Tissue Distribution)?
Answer: The concentration at 4 h was 0.00347 µg/mL.

Question: And the concentration at 4 h ([3]; blood, Concentration)?
Answer: The concentration at 4 h was 0.144 µg/mL.

Question: And the concentration at 4 h ([3]; brain, Concentration)?
Answer: The concentration at 4 h was 0.0387 µg/mL.

Question: What about the concentration at 4 h ([3]; brain, Tissue Concentration) of the same compound?
Answer: Its concentration at 4 h is 0.0172 µg/mL.

Question: And the concentration at 4 h ([3]; brain, Tissue Distribution)?
Answer: Its concentration at 4 h is 0.00296 µg/mL.

Question: And the concentration at 4 h ([3]; heart, Concentration)?
Answer: Its concentration at 4 h is 0.0221 µg/mL.

Question: And the concentration at 4 h ([3]; heart, Tissue Concentration)?
Answer: The concentration at 4 h was 0.00319 µg/mL.

Question: And the concentration at 4 h ([3]; heart, Tissue Distribution)?
Answer: The concentration at 4 h was 0.00135 µg/mL.

Question: What about the concentration at 4 h ([3]; liver, Concentration) of the same compound?
Answer: Its concentration at 4 h is 0.2 µg/mL.

Question: What about the concentration at 4 h ([3]; liver, Tissue Concentration) of the same compound?
Answer: Its concentration at 4 h is 0.0248 µg/mL.

Question: What about the concentration at 4 h ([3]; liver, Tissue Distribution) of the same compound?
Answer: Its concentration at 4 h is 0.0119 µg/mL.
